Experimental data taken from PubChem BioAssay (NCI).
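In this assay, cells in 96-well plates receive the compound at five concentrations for 48 hours. Endpoints are linearly interpolated between the surrounding concentrations. Abbreviation: GI50, concentration required for 50% inhibition of growth. TGI marks complete inhibition of growth.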 Where a SMILES comes first, the peptide text is derived from it. The star is where a group is joined. Boc = CC(C)(C)OC(=O)*

How the values were obtained:
Assay in all cases: NCI-60 cell line screen, 48 h
NCI-H23 lung = test system: NCI-H23 lung
SK-MEL-2 melanoma = test system: SK-MEL-2 melanoma
MDA-MB-231 breast = test system: MDA-MB-231 breast
MCF7 breast = test system: MCF7 breast
SNB-19 CNS = test system: SNB-19 CNS
SW-620 colon = test system: SW-620 colon
HL-60(TB) leukemia = test system: HL-60(TB) leukemia
T-47D breast = test system: T-47D breast
EKVX NSCLC = test system: EKVX NSCLC
BT-549 breast = test system: BT-549 breast

| Compound | TGI (NCI-H23 lung) [µM] | TGI (SK-MEL-2 melanoma) [µM] | TGI (MDA-MB-231 breast) [µM] | TGI (MCF7 breast) [µM] | TGI (SNB-19 CNS) [µM] | TGI (SW-620 colon) [µM] | TGI (HL-60(TB) leukemia) [µM] | TGI (T-47D breast) [µM] | TGI (EKVX NSCLC) [µM] | TGI (BT-549 breast) [µM] | GI50 (SNB-19 CNS) [µM] | GI50 (NCI-H23 lung) [µM] | GI50 (SK-MEL-2 melanoma) [µM] | GI50 (MDA-MB-231 breast) [µM] | GI50 (SW-620 colon) [µM] | GI50 (EKVX NSCLC) [µM] |
| --- | --- | --- | --- | --- | --- | --- | --- | --- | --- | --- | --- | --- | --- | --- | --- | --- |
| C=C(Br)CNC(=O)CCC(=O)NCC(=C)Br | > 100 | > 100 | > 100 | > 100 | > 100 | > 100 | > 100 | > 100 | > 100 | – | – | – | – | – | – | – |
| COc1ccc(-c2cc3[nH]nc(N)c3c(=O)o2)cc1 | > 100 | > 100 | – | – | > 100 | > 100 | > 100 | – | > 100 | – | – | – | – | – | – | – |
| O=C1CC(c2ccccc2)n2cccc21 (stereo not given) | > 100 | > 100 | > 100 | > 100 | > 100 | > 100 | > 100 | > 100 | > 100 | – | – | – | – | – | – | – |
| BrC(c1cccc2ccccc12)c1cccc2ccccc12 | 43 | 30.1 | 28 | – | > 100 | 45.5 | 51.4 | > 100 | 56.4 | 39.3 | – | – | – | – | – | – |
| COC(=O)C(Cc1c[nH]c2ccccc12)NC(=O)C(Cc1c[nH]c2ccccc12)NC(=O)C(Cc1c[nH]c2ccccc12)NC(=O)C(Cc1c[nH]c2ccccc12)NC(=O)C(Cc1c[nH]c2ccccc12)NC(=O)C(Cc1c[nH]c2ccccc12)NC(=O)C(Cc1c[nH]c2ccccc12)NC(=O)C(Cc1c[nH]c2ccccc12)NC(=O)OC(C)(C)C (stereo not given) (Boc-WWWWWWWW-OMe; configuration not given here) | > 100 | > 100 | > 100 | > 100 | > 100 | > 100 | 53.5 | – | – | > 100 | – | – | – | – | – | – |
| COc1ccccc1C(=O)c1c(NCc2ccccc2)c(=O)c1=O | > 100 | > 100 | > 100 | – | > 100 | 37.8 | > 100 | – | > 100 | > 100 | – | – | – | – | – | – |
| OC(c1cc(C23CC4CC(CC(C4)C2)C3)nc2c(Cl)cc(Cl)cc12)C1CCCCN1 (stereo not given) | – | 3.46 | 2.78 | 2.9 | – | – | 3.59 | – | 3.59 | – | – | – | – | – | – | – |
| CCCC(=O)OC1C(CO)OC(n2cc(F)c(=O)[nH]c2=O)C1F (stereo not given) | > 100 | > 100 | – | > 100 | – | > 100 | > 100 | > 100 | > 100 | > 100 | – | – | – | – | – | – |
| Cn1cc2ccccc2c1-c1nc(F)nc(OCC(=O)[C@H]2CCC3[C@@H]4CCC5=CC(=O)CC[C@]5(C)C4[C@@H](O)C[C@@]32C)n1 (stereo not given in full) | 16.5 | 31.3 | – | – | 36 | 33.4 | 25.3 | – | 58.8 | – | – | – | – | – | – | – |
| Cc1ccccc1S(=O)(=O)Nn1cnc2ccc(S(=O)(=O)Nc3ccc(Cl)cc3)cc2c1=O | > 100 | > 100 | > 100 | > 100 | > 100 | > 100 | > 100 | – | > 100 | > 100 | – | – | – | – | – | – |
| Cc1cc(S(=O)(=O)Nc2nc3ccccc3c(=O)n2N)c(S)cc1Cl | > 100 | > 100 | > 100 | > 100 | 47.2 | > 100 | > 100 | – | > 100 | > 100 | 15.7 | – | – | – | – | – |
| COC(=O)c1c2cccccc-2c(Cc2c3cccccc-3c(C(=O)OC)c2O)c1O | > 100 | > 100 | – | – | > 100 | > 100 | > 100 | – | > 100 | – | – | – | – | – | – | – |
| Nc1nc2c3nc(Nc4ccccc4)sc3nc(=O)n2c2sc(Nc3ccccc3)nc12 | > 100 | – | – | – | > 100 | > 100 | > 100 | – | > 100 | – | – | – | – | – | – | – |
| CC(C)(C)OC(=O)N1C(c2cccnc2)=CC[C@H]2C3CC=C(c4cccnc4)[C@@]3(C)CC[C@@H]21 (stereo not given in full) | 12.8 | 8.39 | – | 11.1 | 17.2 | 15.8 | 14 | 29.8 | 10.3 | 16.3 | – | – | – | – | – | – |
| CN(C)c1nc(Cl)c2c(-c3ccccc3)c(-c3ccccc3)oc2n1 | > 100 | – | > 100 | > 100 | > 100 | > 100 | 36 | > 100 | > 100 | 97.7 | – | – | – | – | – | – |
| CCN1CCC(O)(c2ccc(Cl)cc2)C(C(=O)c2ccc(Cl)cc2)C1 (stereo not given) | > 100 | > 100 | – | – | > 100 | > 100 | > 100 | – | > 100 | – | – | – | – | – | – | – |
| CCOC(=O)NC(Nc1ccc(C(=O)OCC)cc1)(C(F)(F)F)C(F)(F)F | > 100 | – | > 100 | > 100 | > 100 | > 100 | > 100 | > 100 | – | > 100 | – | – | – | – | – | – |

| Compound | TGI (NCI-H23 lung) [µM] | TGI (SK-MEL-2 melanoma) [µM] | TGI (MDA-MB-231 breast) [µM] | TGI (MCF7 breast) [µM] | TGI (SNB-19 CNS) [µM] | TGI (SW-620 colon) [µM] | TGI (HL-60(TB) leukemia) [µM] | TGI (T-47D breast) [µM] | TGI (EKVX NSCLC) [µM] | TGI (BT-549 breast) [µM] | GI50 (SNB-19 CNS) [µM] | GI50 (NCI-H23 lung) [µM] | GI50 (SK-MEL-2 melanoma) [µM] | GI50 (MDA-MB-231 breast) [µM] | GI50 (SW-620 colon) [µM] | GI50 (EKVX NSCLC) [µM] |
| --- | --- | --- | --- | --- | --- | --- | --- | --- | --- | --- | --- | --- | --- | --- | --- | --- |
| COc1cc(CNNC(N)=S)cc(OC)c1OC | > 100 | – | > 100 | > 100 | > 100 | > 100 | > 100 | > 100 | > 100 | > 100 | – | – | – | – | – | – |
| CC(=O)OCC1OC(n2c(-c3ccc(C)cc3)cc(-c3ccccc3)c(C#N)c2=S)C(OC(C)=O)C(OC(C)=O)C1OC(C)=O (stereo not given) | > 100 | – | > 100 | > 100 | > 100 | > 100 | > 100 | > 100 | > 100 | > 100 | – | – | – | – | – | – |
| Cc1cc2c([nH]c3ccccc32)c2c1OC(C)(C)C1C3CC(C)(C)Oc4c(C)cc5c6ccccc6n(c5c43)C21 (stereo not given) | > 100 | > 100 | – | – | > 100 | > 100 | > 100 | – | > 100 | – | – | – | – | – | – | – |
| C(=C\c1ccco1)/c1cccc(/C=C/c2ccco2)n1 | > 50 | – | – | > 50 | > 50 | > 50 | > 50 | – | > 50 | > 50 | – | – | – | – | – | – |
| COc1cc(/C=c2\sc3n(c2=O)C(c2ccc(Cl)cc2)C2=C(CCCC2C)N=3)cc(OC)c1OC (stereo not given) | – | > 100 | > 100 | > 100 | > 100 | > 100 | > 100 | – | > 100 | – | – | – | – | – | – | – |
| O=C(NCCCCCCNC(=O)c1cc(-c2ccccc2)nc2ccccc12)c1cc(-c2ccccc2)nc2ccccc12 | > 100 | – | > 100 | > 100 | > 100 | > 100 | > 100 | > 100 | > 100 | > 100 | – | – | – | – | – | – |
| COc1ccc(SCc2cc(OCc3ccccc3)c(OCc3ccccc3)c(OCc3ccccc3)c2)cc1 | 3.35 | – | 2.7 | – | 3.19 | – | 3.44 | – | 4.37 | 4.59 | – | – | – | – | – | – |
| CC1(C)C2C=CC1C(=O)CC2 (stereo not given) | > 100 | > 100 | – | – | > 100 | > 100 | > 100 | – | > 100 | – | – | – | – | – | – | – |
| O=C1c2ccc(O)c(O)c2C(=O)c2c(O)ccc(O)c21 | 93.8 | 66.5 | – | – | 85.3 | > 100 | – | – | 67.4 | – | – | – | – | – | – | – |
| Cc1ccc2c(c1)-c1nc(N)c(C#N)c(-c3ccccc3)c1CCS2(=O)=O | > 100 | > 100 | > 100 | – | 67.7 | > 100 | – | > 100 | – | > 100 | – | – | – | – | – | – |
| C=C1C2C[C@@H]3O[C@H]4C[C@H]5O[C@@]6(C[C@@H]7O[C@]8(C[C@H](C)[C@@H]9O[C@@H]%10CC(CO)O[C@@H]%10C[C@@H]9O8)C[C@H](C)[C@@H]7O6)C[C@H]5O[C@H]4[C@H](C)[C@H]3OC(=O)C[C@H]3CC[C@@H]4OC5[C@H]6O[C@]7(CC[C@H]8CC(=C)[C@H](CC[C@@H](C[C@H]1C)O2)O8)CC6O[C@@H]5[C@@H](O7)[C@H]4O3 (stereo not given in full) | 0.00124 | > 1 | > 1 | – | > 1 | > 1 | – | – | > 1 | < 0.0001 | – | – | – | – | – | – |
| CC(C)/C(Cl)=N\OC(=O)Nc1cccc(Cl)c1 | 34 | 30 | 30.3 | 32 | > 100 | 9.83 | 3.3 | 68.5 | 31.7 | – | – | – | – | – | – | – |
| Cc1cc(=O)oc2c(CNC(Cc3ccccc3)C(=O)O)c(O)ccc12 (stereo not given) | > 100 | > 100 | > 100 | > 100 | > 100 | > 100 | > 100 | > 100 | > 100 | – | – | – | – | – | – | – |
| COc1cc2c(cc1OCCCC(=O)Nc1ccc3ccc4cccc5ccc1c3c45)N=C[C@@H]1CCCN1C2=O | < 0.01 | < 0.01 | 0.051 | 0.297 | – | 0.0483 | – | – | 0.169 | – | – | < 0.01 | < 0.01 | 0.0135 | < 0.0126 | 0.0299 |
| C=C1CCC([N+](=O)[O-])[C@](C)(N=O)CC[C@@H]2C1CC2(C)C (stereo not given in full) | 33.3 | – | – | 39.6 | 77.9 | 47.2 | > 100 | – | 40.4 | 37.1 | – | – | – | – | – | – |
| CCN(CC)C(=O)C(C)n1cc(C)c(=O)[nH]c1=O (stereo not given) | > 100 | > 100 | – | – | > 100 | > 100 | > 100 | – | > 100 | – | – | – | – | – | – | – |
